Calls of active or inactive are those of the source. The calls are words filed in the database; no cut-off is given here.
Experiments:
[1] = system: Mus musculus; experiment: Analgesic activity in OX1R knock out mouse assessed as increase in wheel running activity at 4 to 10 ug/kg; type: functional, organism-based; conditions: dose microg/kg 4-10
[2] = Toxicity in mouse assessed as conditioned place aversion at 10 to 40 microg/kg, sc; conditions: in vivo, dose 10-40 µg/kg
[3] = system: Mus musculus; experiment: Analgesic activity in OX1R knock out mouse assessed as increase in wheel running activity at 40 ug/kg; type: functional, organism-based; conditions: dose 40.0 µg/kg
[4] = Dissociation constant, pKa of compound; type: physicochemical
[5] = Toxicity in dual OX1/2R knock out mouse assessed as increase in conditioned place aversion at 10 to 40 microg/kg, sc; conditions: in vivo, dose 10-40 µg/kg

With `CN(C(=O)/C=C/c1ccoc1)[C@@H]1CC[C@@]2(O)[C@H]3Cc4ccc(O)c5c4[C@@]2(CCN3CC2CC2)[C@H]1O5` [NALFURAFINE] the Activity [1] was “inactive”, the Activity [2] was “Non-Toxic” and the Activity [3] was “Active”. The pKa [4] was 9.4 and the Activity [5] was “Toxic”.

From ChEMBL document CHEMBL4725319, “Discovery of attenuation effect of orexin 1 receptor to aversion of nalfurafine: Synthesis and evaluation of D-nor-nalfurafine derivatives and analyses of the three active conformations of nalfurafine” (Bioorg Med Chem Lett, 2020)
